Converted amounts (≈) assume the structure as drawn.
How the values were obtained:
P. aeruginosa ATCC 27853 [1] = assay: MIC, broth dilution, P. aeruginosa; type: cell-based, Pseudomonas aeruginosa; details: Pseudomonas aeruginosa, ATCC27853; P. aeruginosa ATCC 27853, 18 h; read-out: MIC Pa
E. coli ATCC 25922 [2] = assay: MIC, broth dilution, E. coli; type: cell-based, Escherichia coli; details: Escherichia coli, ATCC25922; E. coli ATCC 25922, 18 h
C. albicans ATCC 90028 = assay: Antifungal MIC (CO-ADD), C. albicans; type: cell-based; details: Candida albicans, ATCC90028, top dose 32 µg/mL
Experimental: (§1) For the antifungal assay, fungi strains were cultured for 3 days on YPD agar at 30 °C. A yeast suspension of 1 × 10^6 to 5 × 10^6 CFU/mL was prepared from five colonies. These stock suspensions were diluted with a yeast nitrogen base (YNB) (Becton Dickinson, 233520, New South Wales, Australia) broth to a final concentration of 2.5 × 10^3 CFU/mL. […] The plates were covered and incubated at 35 °C for 36 h without shaking. C. albicans MICs were determined by measuring the absorbance at OD530. For C. neoformans, resazurin was added at a 0.006% final concentration to each well and incubated for a further 3 h before the MICs were determined by measuring the absorbance at OD570–600. […] Fluconazole was used as a positive fungal inhibitor standard for C. albicans and C. neoformans. […] The quality control (QC) of the assays was determined by the antimicrobial controls and the Z′-factor (using positive and negative controls).

S. aureus ATCC 25923 = assay: MIC, broth dilution, S. aureus; type: cell-based, Staphylococcus aureus; details: Staphylococcus aureus, ATCC25923; S. aureus ATCC 25923, 18 h; read-out: MIC Sa
E. coli ATCC 25922 [3] = assay: Erythromycin potentiation against E. coli; type: cell-based, Escherichia coli; details: erythromycin at 2 µg/mL (2.7 µM); for Erythro/Ec fold-change (intrinsic MIC / combination MIC): E. coli; for Erythro/Ec: concentration required to restore erythromycin activity (combination MIC): mean n = 3
Text: (§2) These measurements were independently repeated in triplicate.

[4] = Cytotoxicity assay (resazurin); type: cell-based; details: human, HEK293 cells, mean n = 2
[5] = tested on: C. neoformans ATCC 208821; assay: Antifungal MIC (CO-ADD), C. neoformans; type: cell-based; details: Cryptococcus neoformans, ATCC208821, top dose 32 µg/mL
Experimental: as §1

[6] = tested on: K. pneumoniae ATCC 700603; assay: MIC, broth microdilution (CO-ADD), K. pneumoniae; details: top dose 32 µg/mL
P. aeruginosa ATCC 27853 [7] = assay: Doxycycline potentiation against P. aeruginosa; type: cell-based, Pseudomonas aeruginosa; details: doxycycline at 2 µg/mL (4.5 µM); for Dox/Pa fold-change (intrinsic MIC / combination MIC): P. aeruginosa ATCC 27853; for Dox/Pa: concentration required to restore doxycycline activity (combination MIC): P. aeruginosa ATCC 27853, mean n = 3
Text: as §2

A. baumannii ATCC 19606 = assay: MIC, broth microdilution (CO-ADD), A. baumannii; type: cell-based, Acinetobacter baumannii; details: Acinetobacter baumannii, ATCC19606, top dose 32 µg/mL
human red blood cells = assay: Hemolytic assay; type: cell-based; details: 10% hemolytic activity, mean n = 2
Experimental: Human whole blood was washed three times with three volumes of 0.9% NaCl and then resuspended in the same solution to a concentration of 0.5 × 10^8 cells/mL, as determined by the manual cell count in a Neubauer hemocytometer. The washed cells were then added to the 384-well compound-containing plates for a final volume of 50 μL. After a 10 min shake on a plate shaker, the plates were then incubated for 1 h at 37 °C. After incubation, the plates were centrifuged at 1000× g for 10 min to pellet cells and debris; 25 μL of the supernatant was then transferred to a polystyrene 384-well assay plate. Hemolysis was determined by measuring the supernatant absorbance at […] (OD405). The absorbance was measured using a Tecan M1000 Pro monochromator plate reader. HC10 and HC50 (concentrations at 10% and 50% hemolysis, respectively) were calculated by a curve fitting the inhibition values vs. log (concentration) using a sigmoidal dose–response function with variable fitting values for the top, bottom, and slope.

MRSA ATCC 43300 = assay: MIC, broth microdilution (CO-ADD), MRSA; type: cell-based, methicillin-resistant S. aureus; details: Staphylococcus aureus; MRSA ATCC 43300; top dose 32 µg/mL; read-out: MIC MRSA

Structure (SMILES) | MIC (P. aeruginosa ATCC 27853 [1]) [µM] | MIC (E. coli ATCC 25922 [2]) [µM] | MIC (C. albicans ATCC 90028) [µM] | MIC (S. aureus ATCC 25923) [µM] | Erythro/Ec fold-change (intrinsic MIC / combination MIC) (E. coli ATCC 25922 [3]) [fold] | Erythro/Ec: concentration required to restore erythromycin activity (combination MIC) (E. coli ATCC 25922 [3]) [µM] | MIC [5] [µM] | MIC Kp [6] [µM] | Dox/Pa fold-change (intrinsic MIC / combination MIC) (P. aeruginosa ATCC 27853 [7]) [fold] | Dox/Pa: concentration required to restore doxycycline activity (combination MIC) (P. aeruginosa ATCC 27853 [7]) [µM] | MIC (A. baumannii ATCC 19606) [µM] | MIC (MRSA ATCC 43300) [µM] | IC50 at 20 h [4] [µM] | Hemolysis HC10 (human red blood cells) [µM]
Cc1ccc2[nH]cc(C(=O)NCCCNCCCCNCCCNC(=O)c3c[nH]c4ccc(C)cc34)c2c1 [Compound 15a] | > 269 | > 269 | > 43 | 67.1 (≈ 34.7 µg/mL) | > 4 | 67.1 | ≤ 0.34 | >43 | > 8 | 33.6 | > 43 | ≤ 0.34 | > 43 | >43
Cc1ccc2[nH]cc(C(=O)NCCCNCCCCCCNCCCNC(=O)c3c[nH]c4ccc(C)cc34)c2c1 [Compound 15b] | > 259 | 129 (≈ 70.3 µg/mL) | > 41 | 259 (≈ 141 µg/mL) | 4 | 32.4 | ≤ 0.32 | >41 | > 8 | 32.4 | > 41 | 5.18 (≈ 2.82 µg/mL) | > 41 | >41
O=C(NCCCNCCCCCCCNCCCNC(=O)c1c[nH]c2c(F)cccc12)c1c[nH]c2c(F)cccc12 [Compound 16c] | 251 (≈ 142 µg/mL) | > 251 | > 40 | > 251 | 1 | 252 | ≤ 0.31 | >40 | > 4 | 62.9 | > 40 | ≤ 0.31 | > 40 | >40
O=C(NCCCNCCCCCCCCNCCCNC(=O)c1c[nH]c2c(F)cccc12)c1c[nH]c2c(F)cccc12 [Compound 16d] | 247 (≈ 143 µg/mL) | 247 (≈ 143 µg/mL) | > 40 | 247 (≈ 143 µg/mL) | 1 | 247 | ≤ 0.31 | >40 | > 8 | 30.9 | > 40 | 9.89 (≈ 5.74 µg/mL) | > 40 | >40
O=C(NCCCNCCCCCCCCCCNCCCNC(=O)c1c[nH]c2c(F)cccc12)c1c[nH]c2c(F)cccc12 [Compound 16e] | 239 (≈ 145 µg/mL) | 239 (≈ 145 µg/mL) | ≤ 0.3 | 239 (≈ 145 µg/mL) | 1 | 239 | ≤ 0.3 | >38 | 8 | 29.9 | > 38 | ≤ 0.3 | > 38 | >38

Further lines, with some results ahead:

MIC (P. aeruginosa ATCC 27853 [1]) [µM] | MIC (E. coli ATCC 25922 [2]) [µM] | MIC (C. albicans ATCC 90028) [µM] | MIC (S. aureus ATCC 25923) [µM] | Erythro/Ec fold-change (intrinsic MIC / combination MIC) (E. coli ATCC 25922 [3]) [fold] | Erythro/Ec: concentration required to restore erythromycin activity (combination MIC) (E. coli ATCC 25922 [3]) [µM] | MIC [5] [µM] | MIC Kp [6] [µM] | Dox/Pa fold-change (intrinsic MIC / combination MIC) (P. aeruginosa ATCC 27853 [7]) [fold] | Dox/Pa: concentration required to restore doxycycline activity (combination MIC) (P. aeruginosa ATCC 27853 [7]) [µM] | MIC (A. baumannii ATCC 19606) [µM] | MIC (MRSA ATCC 43300) [µM] | Structure (SMILES) | IC50 at 20 h [4] [µM] | Hemolysis HC10 (human red blood cells) [µM]
112 | 14.1 | ≤ 0.28 | 3.52 | 1 | 14.1 | ≤ 0.28 | >36 | 2 | 56.2 | > 36 | ≤ 0.28 | COc1ccc2[nH]cc(C(=O)NCCCNCCCCCCCCCCCCNCCCNC(=O)c3c[nH]c4ccc(OC)cc34)c2c1.O=C(O)C(F)(F)F.O=C(O)C(F)(F)F [Compound 14f] | > 36 | >36
> 254 | 254 (≈ 142 µg/mL) | > 41 | 63.5 (≈ 35.5 µg/mL) | 4 | 63.5 | ≤ 0.32 | >41 | > 4 | 63.5 | > 41 | ≤ 0.32 | Cc1ccc2[nH]cc(C(=O)NCCCNCCCCCCCNCCCNC(=O)c3c[nH]c4ccc(C)cc34)c2c1 [Compound 15c] | > 41 | >41
250 (≈ 143 µg/mL) | 125 (≈ 71.6 µg/mL) | > 40 | 31.2 (≈ 17.9 µg/mL) | 4 | 31.2 | ≤ 0.31 | >40 | 8 | 31.2 | > 40 | ≤ 0.31 | Cc1ccc2[nH]cc(C(=O)NCCCNCCCCCCCCNCCCNC(=O)c3c[nH]c4ccc(C)cc34)c2c1 [Compound 15d] | > 40 | >40
60.3 (≈ 36.2 µg/mL) | 30.2 (≈ 18.1 µg/mL) | ≤ 0.3 | 3.77 (≈ 2.27 µg/mL) | 4 | 7.54 | ≤ 0.3 | >39 | 4 | 15.1 | 19.3 (≈ 11.6 µg/mL) | ≤ 0.3 | Cc1ccc2[nH]cc(C(=O)NCCCNCCCCCCCCCCNCCCNC(=O)c3c[nH]c4ccc(C)cc34)c2c1 [Compound 15e] | > 39 | >39
58.3 | 29.2 | ≤ 0.29 | 3.65 | 1 | 29.2 | ≤ 0.29 | >37.3 | 0.5 | 117 | ≤ 0.29 | ≤ 0.29 | Cc1ccc2[nH]cc(C(=O)NCCCNCCCCCCCCCCCCNCCCNC(=O)c3c[nH]c4ccc(C)cc34)c2c1.O=C(O)C(F)(F)F.O=C(O)C(F)(F)F [Compound 15f] | 0.55 | >37
116 | 231 | > 37 | 231 | 1 | 231 | ≤ 0.29 | >37 | 1 | 116 | > 37 | ≤ 0.29 | O=C(NCCCNCCCCCCCCCCCCNCCCNC(=O)c1c[nH]c2c(F)cccc12)c1c[nH]c2c(F)cccc12.O=C(O)C(F)(F)F.O=C(O)C(F)(F)F [Compound 16f] | > 37 | >37
